Laboratory results from publication PMC11661359, “Structure guided functional analysis of the S. cerevisiae Mre11 complex” (Research Square, 2024).

T1: S. cerevisiae Mre11-Rad50 (MR) complex (Saccharomyces cerevisiae, UniProt P12753, K192A/K195A/K196A, form not given)
T1 construct: full-length Rad50 and Mre11 (C-terminal 1xFLAG on Mre11 given for MR-EQ), purified from yeast; 2:2 complex, no Xrs2; with Double-strand break repair protein MRE11
T1 sequence (P12753 1-1312 K192A/K195A/K196A): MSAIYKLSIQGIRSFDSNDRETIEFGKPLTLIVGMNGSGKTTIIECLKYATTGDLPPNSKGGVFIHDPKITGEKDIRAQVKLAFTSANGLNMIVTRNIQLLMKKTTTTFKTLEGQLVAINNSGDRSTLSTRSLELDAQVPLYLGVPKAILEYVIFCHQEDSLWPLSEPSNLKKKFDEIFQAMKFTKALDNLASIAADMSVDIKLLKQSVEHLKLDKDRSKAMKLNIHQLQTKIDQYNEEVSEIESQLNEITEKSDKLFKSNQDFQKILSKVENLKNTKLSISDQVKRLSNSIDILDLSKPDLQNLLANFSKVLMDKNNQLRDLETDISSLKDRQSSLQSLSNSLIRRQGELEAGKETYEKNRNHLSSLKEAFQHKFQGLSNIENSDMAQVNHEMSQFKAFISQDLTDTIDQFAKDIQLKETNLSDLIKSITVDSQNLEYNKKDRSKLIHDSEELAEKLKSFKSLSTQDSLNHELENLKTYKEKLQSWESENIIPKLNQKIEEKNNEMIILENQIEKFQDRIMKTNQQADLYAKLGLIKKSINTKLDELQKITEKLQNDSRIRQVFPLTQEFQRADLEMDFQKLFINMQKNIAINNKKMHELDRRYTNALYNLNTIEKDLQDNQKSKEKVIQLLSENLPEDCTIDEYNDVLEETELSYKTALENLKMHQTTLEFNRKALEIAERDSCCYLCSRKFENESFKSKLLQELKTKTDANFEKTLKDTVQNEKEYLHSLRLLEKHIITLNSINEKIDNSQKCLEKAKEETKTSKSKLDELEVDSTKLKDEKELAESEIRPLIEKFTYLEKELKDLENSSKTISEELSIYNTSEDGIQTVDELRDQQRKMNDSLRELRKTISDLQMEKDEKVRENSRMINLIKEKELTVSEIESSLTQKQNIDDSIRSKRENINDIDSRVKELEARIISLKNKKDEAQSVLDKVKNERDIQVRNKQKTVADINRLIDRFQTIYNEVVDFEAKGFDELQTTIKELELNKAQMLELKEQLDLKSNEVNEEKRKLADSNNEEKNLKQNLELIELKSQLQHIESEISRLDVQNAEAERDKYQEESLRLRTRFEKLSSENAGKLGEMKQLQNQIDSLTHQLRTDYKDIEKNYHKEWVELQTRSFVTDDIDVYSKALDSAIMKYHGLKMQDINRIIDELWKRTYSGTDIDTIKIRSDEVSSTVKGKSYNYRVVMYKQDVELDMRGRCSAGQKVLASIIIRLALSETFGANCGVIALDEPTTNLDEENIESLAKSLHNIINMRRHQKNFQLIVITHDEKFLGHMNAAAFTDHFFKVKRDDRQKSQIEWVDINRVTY
T1 sequence (P32829 1-692 partner): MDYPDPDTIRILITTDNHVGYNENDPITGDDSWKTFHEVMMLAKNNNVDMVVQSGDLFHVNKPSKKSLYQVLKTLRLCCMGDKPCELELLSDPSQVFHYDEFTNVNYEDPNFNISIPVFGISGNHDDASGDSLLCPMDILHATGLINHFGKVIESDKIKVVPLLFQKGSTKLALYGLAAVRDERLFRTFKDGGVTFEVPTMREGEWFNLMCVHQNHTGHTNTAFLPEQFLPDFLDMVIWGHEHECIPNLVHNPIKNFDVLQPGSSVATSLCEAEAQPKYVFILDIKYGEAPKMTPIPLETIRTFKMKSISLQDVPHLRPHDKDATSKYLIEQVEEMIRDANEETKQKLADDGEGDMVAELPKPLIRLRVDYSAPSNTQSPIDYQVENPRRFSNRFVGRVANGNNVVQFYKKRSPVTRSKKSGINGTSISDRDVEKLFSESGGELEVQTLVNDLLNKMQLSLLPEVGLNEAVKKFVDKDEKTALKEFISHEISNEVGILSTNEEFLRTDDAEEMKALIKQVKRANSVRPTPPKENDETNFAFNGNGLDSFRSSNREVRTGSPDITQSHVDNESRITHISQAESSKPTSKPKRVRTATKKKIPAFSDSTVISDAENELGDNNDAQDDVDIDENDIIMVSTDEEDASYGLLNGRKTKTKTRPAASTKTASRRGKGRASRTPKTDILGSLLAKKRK

T2: S. cerevisiae Mre11-Rad50 (MR) complex (Saccharomyces cerevisiae, UniProt P12753, E1235Q, form not given)
T2 construct: full-length Rad50 and Mre11 (C-terminal 1xFLAG on Mre11 given for MR-EQ), purified from yeast; 2:2 complex, no Xrs2; with Double-strand break repair protein MRE11
T2 sequence (P12753 1-1312 E1235Q): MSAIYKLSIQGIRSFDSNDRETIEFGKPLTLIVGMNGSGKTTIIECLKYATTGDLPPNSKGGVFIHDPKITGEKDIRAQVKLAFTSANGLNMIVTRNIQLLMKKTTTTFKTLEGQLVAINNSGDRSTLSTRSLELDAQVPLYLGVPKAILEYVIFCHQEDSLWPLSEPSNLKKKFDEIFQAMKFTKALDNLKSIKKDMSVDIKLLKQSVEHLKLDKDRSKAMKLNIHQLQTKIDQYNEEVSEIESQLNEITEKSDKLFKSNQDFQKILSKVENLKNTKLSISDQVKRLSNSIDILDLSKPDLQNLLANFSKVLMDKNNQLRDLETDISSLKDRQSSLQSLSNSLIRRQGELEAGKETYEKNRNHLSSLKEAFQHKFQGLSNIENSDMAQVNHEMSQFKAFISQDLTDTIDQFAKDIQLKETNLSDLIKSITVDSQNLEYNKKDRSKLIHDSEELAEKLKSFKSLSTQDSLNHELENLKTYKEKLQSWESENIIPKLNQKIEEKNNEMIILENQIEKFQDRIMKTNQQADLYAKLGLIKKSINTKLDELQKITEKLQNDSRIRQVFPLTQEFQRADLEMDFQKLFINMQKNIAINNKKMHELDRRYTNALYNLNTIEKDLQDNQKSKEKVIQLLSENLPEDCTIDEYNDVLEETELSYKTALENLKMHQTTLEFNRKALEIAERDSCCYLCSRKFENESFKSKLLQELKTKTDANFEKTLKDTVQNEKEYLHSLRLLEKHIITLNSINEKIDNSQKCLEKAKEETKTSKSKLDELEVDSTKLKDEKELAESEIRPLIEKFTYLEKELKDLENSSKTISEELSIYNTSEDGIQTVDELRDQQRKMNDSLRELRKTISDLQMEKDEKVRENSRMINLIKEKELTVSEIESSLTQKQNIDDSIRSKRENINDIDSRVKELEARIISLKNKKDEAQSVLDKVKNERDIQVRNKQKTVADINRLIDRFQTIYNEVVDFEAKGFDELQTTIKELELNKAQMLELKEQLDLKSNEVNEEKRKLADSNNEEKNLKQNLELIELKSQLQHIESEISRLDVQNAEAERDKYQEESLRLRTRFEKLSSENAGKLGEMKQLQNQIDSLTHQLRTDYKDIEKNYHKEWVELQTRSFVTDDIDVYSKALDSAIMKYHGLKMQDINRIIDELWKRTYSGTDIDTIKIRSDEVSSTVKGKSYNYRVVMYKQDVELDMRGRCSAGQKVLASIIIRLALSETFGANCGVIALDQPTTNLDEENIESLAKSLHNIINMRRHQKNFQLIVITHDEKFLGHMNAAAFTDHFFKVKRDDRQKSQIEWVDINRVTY
T2 sequence (P32829 1-692 partner): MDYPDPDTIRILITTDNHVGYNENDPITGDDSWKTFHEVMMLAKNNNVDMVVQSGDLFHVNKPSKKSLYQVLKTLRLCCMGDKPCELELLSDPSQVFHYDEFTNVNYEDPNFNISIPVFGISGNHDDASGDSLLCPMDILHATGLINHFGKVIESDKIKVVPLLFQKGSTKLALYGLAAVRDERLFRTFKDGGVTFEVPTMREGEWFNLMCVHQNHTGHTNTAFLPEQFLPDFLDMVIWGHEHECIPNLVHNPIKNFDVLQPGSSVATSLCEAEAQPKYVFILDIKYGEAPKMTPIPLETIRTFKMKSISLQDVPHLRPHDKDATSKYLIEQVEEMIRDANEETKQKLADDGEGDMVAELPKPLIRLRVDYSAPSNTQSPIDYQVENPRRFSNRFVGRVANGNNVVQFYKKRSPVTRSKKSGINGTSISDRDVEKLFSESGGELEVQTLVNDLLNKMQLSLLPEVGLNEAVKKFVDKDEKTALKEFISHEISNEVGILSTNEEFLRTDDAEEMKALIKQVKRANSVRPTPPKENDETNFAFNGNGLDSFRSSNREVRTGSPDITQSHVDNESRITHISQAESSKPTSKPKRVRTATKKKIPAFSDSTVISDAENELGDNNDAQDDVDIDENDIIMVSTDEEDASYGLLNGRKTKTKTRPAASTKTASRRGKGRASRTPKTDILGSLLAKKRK

T3: S. cerevisiae Rad50-E1235Q (R^EQ of the purified MR^EQ complex) (S. cerevisiae, UniProt P12753 1-1312, E1235 residue of Rad50 was mutated to Q)
T3 construct: Rad50, S. cerevisiae; residues 239-1089 (coiled coil arm and Zn hook) are said to be flexible and not traced; also called Rad50-EQ; source: S. cerevisiae, purified from yeast extracts together with Mre11-FLAG (FLAG-Agarose, Heparin-Sepharose, gel filtration)
T3 sequence: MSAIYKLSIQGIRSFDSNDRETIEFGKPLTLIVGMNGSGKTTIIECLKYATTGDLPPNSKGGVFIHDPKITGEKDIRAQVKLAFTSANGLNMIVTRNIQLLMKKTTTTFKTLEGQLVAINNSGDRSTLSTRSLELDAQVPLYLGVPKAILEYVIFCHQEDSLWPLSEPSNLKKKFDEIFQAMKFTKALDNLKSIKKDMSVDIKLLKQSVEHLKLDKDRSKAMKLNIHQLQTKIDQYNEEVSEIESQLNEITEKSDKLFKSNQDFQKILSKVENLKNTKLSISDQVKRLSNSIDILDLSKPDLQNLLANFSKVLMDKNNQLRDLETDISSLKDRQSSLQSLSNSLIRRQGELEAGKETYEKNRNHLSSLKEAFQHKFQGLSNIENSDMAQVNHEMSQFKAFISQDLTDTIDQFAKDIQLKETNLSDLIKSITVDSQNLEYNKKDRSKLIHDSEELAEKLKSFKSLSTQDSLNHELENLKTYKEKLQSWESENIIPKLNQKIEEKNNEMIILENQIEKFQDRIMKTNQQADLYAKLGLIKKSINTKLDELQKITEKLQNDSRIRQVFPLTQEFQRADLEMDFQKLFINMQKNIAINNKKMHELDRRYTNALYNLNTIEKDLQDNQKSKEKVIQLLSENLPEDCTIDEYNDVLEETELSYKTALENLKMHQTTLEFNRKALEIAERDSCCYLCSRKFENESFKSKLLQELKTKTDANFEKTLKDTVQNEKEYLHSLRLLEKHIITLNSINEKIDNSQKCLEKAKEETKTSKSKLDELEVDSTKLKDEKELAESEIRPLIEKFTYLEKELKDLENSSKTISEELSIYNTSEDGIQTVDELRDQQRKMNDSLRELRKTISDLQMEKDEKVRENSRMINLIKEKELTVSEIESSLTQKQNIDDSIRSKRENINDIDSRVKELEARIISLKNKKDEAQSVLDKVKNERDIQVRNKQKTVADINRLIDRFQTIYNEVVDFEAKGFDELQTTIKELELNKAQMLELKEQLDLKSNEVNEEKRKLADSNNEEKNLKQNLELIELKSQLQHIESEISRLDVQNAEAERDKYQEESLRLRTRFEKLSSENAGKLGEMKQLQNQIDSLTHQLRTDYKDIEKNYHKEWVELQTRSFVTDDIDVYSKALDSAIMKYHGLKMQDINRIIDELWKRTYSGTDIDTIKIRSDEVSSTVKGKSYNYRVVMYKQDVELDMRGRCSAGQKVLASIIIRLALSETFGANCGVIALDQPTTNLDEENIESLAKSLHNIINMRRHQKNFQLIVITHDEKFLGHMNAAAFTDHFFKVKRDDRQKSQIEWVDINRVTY


Legend:
[1] = target: T1, S. cerevisiae Mre11-Rad50 (MR) complex; experiment: ATP hydrolysis, radiolabelled phosphate by thin-layer chromatography; assay type: biochemical; conditions: 0-2 uM MR, ss and dsDNA, MgCl2, 90 min; labelled compound
[2] = target: T2, S. cerevisiae Mre11-Rad50 (MR) complex; experiment: cryo-EM structure, […] Å; assay type: binding; conditions: with 83-mer dsDNA, MgCl2 and MnCl2; ATP bound at Walker A/B interface of Rad50 dimer; hydrolysis-deficient mutant
[3] = target: T3, S. cerevisiae Rad50-E1235Q (R^EQ of the …); experiment: cryo-EM structure; purified MR^EQ incubated with a 83-mer dsDNA in the presence of ATP, MgCl2 and MnCl2; 3.2 Å; conditions: both partners purified

Row | Molecule | ATP hydrolysis, radiolabelled phosphate by thin-layer chromatography [1] | cryo-EM structure, 3.2 Å [2] | binding result [3]
1 | Nc1ncnc2c1ncn2[C@@H]1O[C@H](COP(=O)(O)OP(=O)(O)OP(=O)(O)O)[C@@H](O)[C@H]1O [ATP] | Rad50–3KA, Rad50-K60A R1201A and Rad50-R131A R1201A were as defective as the Rad50-EQ mutant | MR^EQ was incubated with a 83-mer double stranded DNA (dsDNA) in the presence of ATP | 
2 | S. cerevisiae Mre11 with a C-terminal 1xFLAG tag (Mre11 of the purified MR^EQ complex) (enzyme, Mre11, S. cerevisiae; residues 413-441 and 508-692 are said to be flexible and not traced; Two symmetry-related Mre11 subunits stand in the structure; also called M of MR^EQ; source: S. cerevisiae, purified from yeast extracts together with Rad50-E1235Q (FLAG-Agarose, Heparin-Sepharose, gel filtration); not shown: 1xFLAG, C-terminal, kept) MDYPDPDTIRILITTDNHVGYNENDPITGDDSWKTFHEVMMLAKNNNVDMVVQSGDLFHVNKPSKKSLYQVLKTLRLCCMGDKPCELELLSDPSQVFHYDEFTNVNYEDPNFNISIPVFGISGNHDDASGDSLLCPMDILHATGLINHFGKVIESDKIKVVPLLFQKGSTKLALYGLAAVRDERLFRTFKDGGVTFEVPTMREGEWFNLMCVHQNHTGHTNTAFLPEQFLPDFLDMVIWGHEHECIPNLVHNPIKNFDVLQPGSSVATSLCEAEAQPKYVFILDIKYGEAPKMTPIPLETIRTFKMKSISLQDVPHLRPHDKDATSKYLIEQVEEMIRDANEETKQKLADDGEGDMVAELPKPLIRLRVDYSAPSNTQSPIDYQVENPRRFSNRFVGRVANGNNVVQFYKKRSPVTRSKKSGINGTSISDRDVEKLFSESGGELEVQTLVNDLLNKMQLSLLPEVGLNEAVKKFVDKDEKTALKEFISHEISNEVGILSTNEEFLRTDDAEEMKALIKQVKRANSVRPTPPKENDETNFAFNGNGLDSFRSSNREVRTGSPDITQSHVDNESRITHISQAESSKPTSKPKRVRTATKKKIPAFSDSTVISDAENELGDNNDAQDDVDIDENDIIMVSTDEEDASYGLLNGRKTKTKTRPAASTKTASRRGKGRASRTPKTDILGSLLAKKRK |  |  | binds
